Converted amounts (≈) assume the structure as drawn.
Tests used:
Assay type in all cases: cell-based
[1] = system: Acholeplasma laidlawii ATCC 23206 LRP 204; experiment: Bacteriostatic power in solid medium (MIC); details: Acholeplasma laidlawii, ATCC23206; solid medium; read-out: Minimum inhibiting concentration
From the text: (§1) the bacteriostatic power, expressed as the minimum inhibiting concentration (MIC) against both aerobic and anaerobic, Gram positive and Gram negative, bacterial stocks: the related results are reported in the tables 2 and 3.

Bacillus subtilis LRP 25 = experiment: Bacteriostatic power in solid medium (MIC); details: Bacillus subtilis, LRP25; solid medium; read-out: Minimum inhibiting concentration
From the text: as §1

[2] = system: Bacteroides fragilis ATCC 23745 LRP 205; experiment: Bacteriostatic power in solid medium (MIC); details: Bacteroides fragilis, ATCC23745; solid medium; anaerobic; read-out: Minimum inhibiting concentration
From the text: as §1

[3] = system: Corynebacterium diphteriae LRP 24; experiment: Bacteriostatic power in solid medium (MIC); details: Corynebacterium, LRP24; solid medium; read-out: Minimum inhibiting concentration
From the text: as §1

Escherichia coli LRP 50 = experiment: Bacteriostatic power in solid medium (MIC); details: Escherichia coli, LRP50; solid medium; read-out: Minimum inhibiting concentration
From the text: as §1

[4] = system: Fusobacteriumnecrophroum ATCC 27852 LRP 210; experiment: Bacteriostatic power in solid medium (MIC); details: solid medium; anaerobic; read-out: Minimum inhibiting concentration
From the text: as §1

[5] = system: Haemophilus influenzae ATCC 19418 LRP 213; experiment: Bacteriostatic power in solid medium (MIC); details: Haemophilus influenzae, ATCC19418, read-out: Minimum inhibiting concentration
From the text: as §1

[6] = system: Klelsiella pneumoniae LRP 54; experiment: Bacteriostatic power in solid medium (MIC); details: solid medium; read-out: Minimum inhibiting concentration
From the text: as §1

[7] = system: Micrococcus luteus ATCC 15957 LRP 193; experiment: Bacteriostatic power in solid medium (MIC); details: Micrococcus luteus, ATCC15957; solid medium; Erythromycin resistant; read-out: Minimum inhibiting concentration
From the text: as §1

[8] = system: Micrococcus luteus ATCC 9341 LRP 6; experiment: Bacteriostatic power in solid medium (MIC); details: Micrococcus luteus, ATCC9341; solid medium; read-out: Minimum inhibiting concentration
From the text: as §1

[9] = system: Mycoplasma hominis I ATCC 14027 LRP 211; experiment: Bacteriostatic power in solid medium (MIC); details: Metamycoplasma hominis, ATCC14027; solid medium; read-out: Minimum inhibiting concentration
From the text: as §1

[10] = system: Neisseria gonorrhoeae ATCC 19424 LRP 214; experiment: Bacteriostatic power in solid medium (MIC); details: Neisseria gonorrhoeae, ATCC19424; solid medium; read-out: Minimum inhibiting concentration
From the text: as §1

[11] = system: Proteus vulgaris ATCC 6380 LRP 13; experiment: Bacteriostatic power in solid medium (MIC); details: Proteus vulgaris, ATCC6380; solid medium; read-out: Minimum inhibiting concentration
From the text: as §1

[12] = system: Pseudomonas aeruginosa LRP 9; experiment: Bacteriostatic power in solid medium (MIC); details: Pseudomonas aeruginosa, LRP9; solid medium; read-out: Minimum inhibiting concentration
From the text: as §1

Shigella sonnei LRP 5 = experiment: Bacteriostatic power in solid medium (MIC); details: LRP5, read-out: Minimum inhibiting concentration
From the text: as §1

[13] = system: Staphylococcus aureus ATCC 14154 LRP 78; experiment: Bacteriostatic power in solid medium (MIC); details: Staphylococcus aureus, ATCC14154, read-out: Minimum inhibiting concentration
From the text: as §1

[14] = system: Staphylococcus aureus ATCC 6538P LRP 14; experiment: Bacteriostatic power in solid medium (MIC); details: Staphylococcus aureus, ATCC6538P; solid medium; Penycilline resistant; read-out: Minimum inhibiting concentration
From the text: as §1

[15] = system: Staphylococcus aureus ATCC 6538P LRP 39; experiment: Bacteriostatic power in solid medium (MIC); details: Staphylococcus aureus, ATCC6538P; solid medium; read-out: Minimum inhibiting concentration
From the text: as §1

[16] = system: Streptococcus faecalis LRP 7; experiment: Bacteriostatic power in solid medium (MIC); details: Enterococcus faecalis, LRP7; solid medium; read-out: Minimum inhibiting concentration
From the text: as §1

[17] = system: Streptococcus faecalis subsp. zymogenes ATCC 12958 LRP 61; experiment: Bacteriostatic power in solid medium (MIC); details: Enterococcus faecalis, ATCC12958; solid medium; read-out: Minimum inhibiting concentration
From the text: as §1

[18] = system: Streptococcus pneumoniae ATCC 6303 LRP 35; experiment: Bacteriostatic power in solid medium (MIC); details: Streptococcus pneumoniae, ATCC6303; solid medium; read-out: Minimum inhibiting concentration
From the text: as §1

[19] = system: Streptococcus pneumoniae ATCC 6303 LRP 52; experiment: Bacteriostatic power in solid medium (MIC); details: Streptococcus pneumoniae, ATCC6303; solid medium; read-out: Minimum inhibiting concentration
From the text: as §1

[20] = system: Streptococcus pneumoniae ATCC 6303 LRP 53; experiment: Bacteriostatic power in solid medium (MIC); details: Streptococcus pneumoniae, ATCC6303; solid medium; read-out: Minimum inhibiting concentration
From the text: as §1

[21] = system: Streptococcus pyogenes ATCC 8668 LRP 197; experiment: Bacteriostatic power in solid medium (MIC); details: Streptococcus pyogenes, ATCC8668; solid medium; read-out: Minimum inhibiting concentration
From the text: as §1

[22] = system: Streptococcus pyogenes ATCC 8668 LRP 34; experiment: Bacteriostatic power in solid medium (MIC); details: Streptococcus pyogenes, ATCC8668; solid medium; read-out: Minimum inhibiting concentration
From the text: as §1

[23] = system: Clostridium perfrigens ATCC 3624 LRP 206; experiment: microbe, parasite or virus in culture; details: ATCC3624, solid medium, anaerobic, read-out: Minimum inhibiting concentration
From the text: as §1

Salmonella typhy LRP 8 = experiment: microbe, parasite or virus in culture; details: LRP8, solid medium, read-out: Minimum inhibiting concentration
From the text: as §1

[24] = system: Corynebacterium diphteriae LRP 24; experiment: Bacteriostatic power in liquid medium (MIC); details: Corynebacterium, LRP24; liquid medium; read-out: Minimum inhibiting concentration
From the text: as §1

[25] = system: Staphylococcus aureus ATCC 6538 P LRP 39; experiment: Bacteriostatic power in liquid medium (MIC); details: Staphylococcus aureus, ATCC6538; liquid medium; read-out: Minimum inhibiting concentration
From the text: as §1

[26] = system: Streptococcus faecalis subs. zymogenes ATCC 12958 LRP 61; experiment: Bacteriostatic power in liquid medium (MIC); details: Enterococcus faecalis, ATCC12958; liquid medium; read-out: Minimum inhibiting concentration
From the text: as §1

[27] = system: Streptococcus pneumoniae ATCC 6303 LRP 35; experiment: Bacteriostatic power in liquid medium (MIC); details: Streptococcus pneumoniae, ATCC6303; liquid medium; read-out: Minimum inhibiting concentration
From the text: as §1

[28] = system: Streptococcus pyogenes ATCC 8668 LRP 34; experiment: Bacteriostatic power in liquid medium (MIC); details: Streptococcus pyogenes, ATCC8668; liquid medium; read-out: Minimum inhibiting concentration
From the text: as §1

[29] = system: Corynebacterium diphteriae LRP 24; experiment: Minimum bactericidal concentration (MBC)
From the text: (§2) the bacterial power, expressed as the minimum bactericidal power (MBC) against some Gram positive aerobic stocks (table 5).

[30] = system: Staphylococcus aureus ATCC 6538 P LRP 39; experiment: Minimum bactericidal concentration (MBC)
From the text: as §2

[31] = system: Streptococcus faecalis subs. zymogenes LRP 61; experiment: Minimum bactericidal concentration (MBC)
From the text: as §2

[32] = system: Streptococcus pneumoniae ATCC 6303 LRP 35; experiment: Minimum bactericidal concentration (MBC)
From the text: as §2

[33] = system: Streptococcus pyogenes ATCC 8668 LRP 34; experiment: Minimum bactericidal concentration (MBC)
From the text: as §2

CO[C@H]1C[C@H](O[C@H]2[C@H](C)[C@@H](O[C@@H]3O[C@H](C)C[C@H](N(C)C)[C@H]3O)[C@@H](C)C[C@@]3(CO3)C(=O)[C@H](C)[C@@H](O)[C@@H](C)[C@@H](C)OC(=O)[C@@H]2C)O[C@@H](C)[C@@H]1O [Oleandomycin, reference compound]
MIC [1]: 6.25 µg/mL (≈ 9.09 µM) | MIC (Bacillus subtilis LRP 25): 0.39 µg/mL (≈ 0.567 µM) | MIC [2]: 0.39 µg/mL (≈ 0.567 µM) | MIC [3]: 0.097 µg/mL (≈ 0.141 µM) | MIC (Escherichia coli LRP 50): 25 µg/mL (≈ 36.3 µM) | MIC [4]: 6.25 µg/mL (≈ 9.09 µM) | MIC [5]: 25 µg/mL (≈ 36.3 µM) | MIC [6]: 25 µg/mL (≈ 36.3 µM) | MIC [7]: 25 µg/mL (≈ 36.3 µM) | MIC [8]: 0.049 µg/mL (≈ 0.0712 µM) | MIC [9]: 25 µg/mL (≈ 36.3 µM) | MIC [10]: 0.39 µg/mL (≈ 0.567 µM) | MIC [11]: 25 µg/mL (≈ 36.3 µM) | MIC [12]: 25 µg/mL (≈ 36.3 µM) | MIC (Shigella sonnei LRP 5): 25 µg/mL (≈ 36.3 µM) | MIC [13]: 25 µg/mL (≈ 36.3 µM) | MIC [14]: 0.39 µg/mL (≈ 0.567 µM) | MIC [15]: 0.39 µg/mL (≈ 0.567 µM) | MIC [16]: 1.56 µg/mL (≈ 2.27 µM) | MIC [17]: 1.56 µg/mL (≈ 2.27 µM) | MIC [18]: 0.195 µg/mL (≈ 0.283 µM) | MIC [19]: 0.195 µg/mL (≈ 0.283 µM) | MIC [20]: 0.195 µg/mL (≈ 0.283 µM) | MIC [21]: 0.195 µg/mL (≈ 0.283 µM) | MIC [22]: 0.195 µg/mL (≈ 0.283 µM) | MIC [23]: 3.12 µg/mL (≈ 4.54 µM) | MIC (Salmonella typhy LRP 8): 25 µg/mL (≈ 36.3 µM) | MIC [24]: 0.097 µg/mL (≈ 0.141 µM) | MIC [25]: 0.39 µg/mL (≈ 0.567 µM) | MIC [26]: 1.56 µg/mL (≈ 2.27 µM) | MIC [27]: 0.195 µg/mL (≈ 0.283 µM) | MIC [28]: 0.195 µg/mL (≈ 0.283 µM) | MBC/MIC [29]: 4 | MBC ([29]; Corynebacterium, LRP24, read-out: Minimum bactericidal concentration (MBC)): 0.39 µg/mL (≈ 0.567 µM) | MBC/MIC [30]: 16 | MBC ([30]; Staphylococcus aureus, ATCC6538, read-out: Minimum bactericidal concentration (MBC)): 6.25 µg/mL (≈ 9.09 µM) | MBC/MIC [31]: > 8 | MBC ([31]; Enterococcus faecalis, read-out: Minimum bactericidal concentration (MBC)): > 12.5 µg/mL | MBC/MIC [32]: 4 | MBC ([32]; Streptococcus pneumoniae, ATCC6303, read-out: Minimum bactericidal concentration (MBC)): 0.78 µg/mL (≈ 1.13 µM) | MBC/MIC [33]: 16 | MBC ([33]; Streptococcus pyogenes, ATCC8668, read-out: Minimum bactericidal concentration (MBC)): 3.12 µg/mL (≈ 4.54 µM)

— patent US4439426A, “Semisynthetic macrolidic antibiotics, intermediate compounds for their preparation and related pharmaceutical compositions containing them” (priority 1981, dated 1984)
